Tested on: MV-4-11 cells
Experiment: Gene expression microarray analysis (Affymetrix PrimeView) and GSEA
Assay type: cell-based, human
Set-up: RFU PODN (11730768_x_at) / Fold change /veh PODN (11730768_x_at) / RFU LINC00158 (11744669_a_at) / Fold change /veh LINC00158 (11744669_a_at) / RFU DUSP10 (11751237_a_at) / Fold change /veh DUSP10 (11751237_a_at) / RFU ID3 (11757404_x_at) / Fold change /veh ID3 (11757404_x_at) / RFU PLEKHG5 (11737974_s_at) / Fold change /veh PLEKHG5 (11737974_s_at) / RFU LRRC4B (11730491_at) / Fold change /veh LRRC4B (11730491_at) / RFU GIMAP4 (11747438_a_at) / Fold change /veh GIMAP4 (11747438_a_at) / RFU KRT8 (11758183_x_at) / Fold change /veh KRT8 (11758183_x_at) / RFU CNN1 (11734310_a_at) / Fold change /veh CNN1 (11734310_a_at) / RFU VPS37D (11726825_at) / Fold change /veh VPS37D (11726825_at) / RFU C10orf10 (11716522_x_at) / Fold change /veh C10orf10 (11716522_x_at) / RFU KIR2DL2 /// KIR2DL4 /// KIR2DL5A /// KIR2DL5B /// KIR2DS1 /// KIR2DS2 /// KIR2DS3 /// KIR2DS4 /// KIR3DL3 /// KIR3DL3 /// KIR3DS1 (11738374_at) / Fold change /veh KIR2DL2 /// KIR2DL4 /// KIR2DL5A /// KIR2DL5B /// KIR2DS1 /// KIR2DS2 /// KIR2DS3 /// KIR2DS4 /// KIR3DL3 /// KIR3DL3 /// KIR3DS1 (11738374_at) / RFU C1QL1 (11718748_at) / Fold change /veh C1QL1 (11718748_at) / RFU TMPRSS4 (11747572_a_at) / Fold change /veh TMPRSS4 (11747572_a_at) / RFU HAMP (11756126_x_at) / Fold change /veh HAMP (11756126_x_at) / RFU RNFT2 (11725882_a_at) / Fold change /veh RNFT2 (11725882_a_at) / RFU NR4A2 (11747474_a_at) / Fold change /veh NR4A2 (11747474_a_at) / RFU ABCC12 (11746883_a_at) / Fold change /veh ABCC12 (11746883_a_at) / RFU TMEM136 (11760407_x_at) / Fold change /veh TMEM136 (11760407_x_at) / RFU CLDN22 /// WWC2 (11732394_at) / Fold change /veh CLDN22 /// WWC2 (11732394_at) / RFU HLA-DPB1 (11760878_x_at) / Fold change /veh HLA-DPB1 (11760878_x_at) / RFU SPINT1 (11716480_a_at) / Fold change /veh SPINT1 (11716480_a_at) / RFU GAP43 (11754022_s_at) / Fold change /veh GAP43 (11754022_s_at) / RFU A4GNT (11735810_at) / Fold change /veh A4GNT (11735810_at) / RFU PRB3 (11715151_x_at) / Fold change /veh PRB3 (11715151_x_at) / RFU TUBB4B (11761932_at) / Fold change /veh TUBB4B (11761932_at) / RFU CAPN14 (11732068_a_at) / Fold change /veh CAPN14 (11732068_a_at) / RFU TMCC2 (11721928_a_at) / Fold change /veh TMCC2 (11721928_a_at) / RFU IRGQ (11745062_a_at) / Fold change /veh IRGQ (11745062_a_at) / RFU FAM174B (11720279_a_at) / Fold change /veh FAM174B (11720279_a_at) / RFU TMPRSS4 (11748680_a_at) / Fold change /veh TMPRSS4 (11748680_a_at) / RFU FAM212B (11763350_a_at) / Fold change /veh FAM212B (11763350_a_at) / RFU PLEKHG5 (11743358_a_at) / Fold change /veh PLEKHG5 (11743358_a_at) / RFU ZSCAN30 (11745921_a_at) / Fold change /veh ZSCAN30 (11745921_a_at) / RFU CMKLR1 (11741424_a_at) / Fold change /veh CMKLR1 (11741424_a_at) / RFU LOC101060620 /// MAPK8IP1 (11723275_at) / Fold change /veh LOC101060620 /// MAPK8IP1 (11723275_at) / RFU SPTSSB (11747773_x_at) / Fold change /veh SPTSSB (11747773_x_at) / RFU PRSS12 (11739890_at) / Fold change /veh PRSS12 (11739890_at) / RFU BIN1 (11741810_x_at) / Fold change /veh BIN1 (11741810_x_at) / RFU WNT11 (11732464_a_at) / Fold change /veh WNT11 (11732464_a_at) / RFU C10orf10 (11716521_a_at) / Fold change /veh C10orf10 (11716521_a_at) / RFU C5orf56 (11738089_at) / Fold change /veh C5orf56 (11738089_at) / RFU CYB561 (11721691_x_at) / Fold change /veh CYB561 (11721691_x_at) / RFU ANKRD19P (11752326_a_at) / Fold change /veh ANKRD19P (11752326_a_at) / RFU OR2T12 /// OR2T33 /// OR2T8 (11738714_s_at) / Fold change /veh OR2T12 /// OR2T33 /// OR2T8 (11738714_s_at) / RFU VCAN (11748164_a_at) / Fold change /veh VCAN (11748164_a_at) / RFU JSRP1 (11732532_at) / Fold change /veh JSRP1 (11732532_at) / RFU KRTAP10-11 (11738290_x_at) / Fold change /veh KRTAP10-11 (11738290_x_at) / RFU MYO3A (11730013_a_at) / Fold change /veh MYO3A (11730013_a_at) / RFU EBF3 (11725865_a_at) / Fold change /veh EBF3 (11725865_a_at) / RFU CAMK2N1 (11719241_x_at) / Fold change /veh CAMK2N1 (11719241_x_at) / RFU C5orf56 (11738088_a_at) / Fold change /veh C5orf56 (11738088_a_at) / RFU OLFML3 (11715873_a_at) / Fold change /veh OLFML3 (11715873_a_at) / RFU LOC100653217 /// NTM (11731650_a_at) / Fold change /veh LOC100653217 /// NTM (11731650_a_at) / RFU MAPK11 (11762145_a_at) / Fold change /veh MAPK11 (11762145_a_at) / RFU FIZ1 (11724087_x_at) / Fold change /veh FIZ1 (11724087_x_at) / RFU OASL (11726364_x_at) / Fold change /veh OASL (11726364_x_at) / RFU SOX15 (11748057_x_at) / Fold change /veh SOX15 (11748057_x_at) / RFU CD79A (11719716_a_at) / Fold change /veh CD79A (11719716_a_at) / RFU HIST1H1D (11736915_at) / Fold change /veh HIST1H1D (11736915_at) / RFU CASKIN2 (11723855_a_at) / Fold change /veh CASKIN2 (11723855_a_at) / RFU LOC730098 (11760151_x_at) / Fold change /veh LOC730098 (11760151_x_at) / RFU OR4N2 (11742367_at) / Fold change /veh OR4N2 (11742367_at) / RFU PRRT2 (11749266_a_at) / Fold change /veh PRRT2 (11749266_a_at) / RFU SNX32 (11753110_a_at) / Fold change /veh SNX32 (11753110_a_at) / RFU CDHR5 (11726645_a_at) / Fold change /veh CDHR5 (11726645_a_at) / RFU RCAN1 (11760418_a_at) / Fold change /veh RCAN1 (11760418_a_at) / RFU FAM167A (11723789_a_at) / Fold change /veh FAM167A (11723789_a_at) / RFU FAM26E (11764081_at) / Fold change /veh FAM26E (11764081_at) / RFU ISYNA1 (11749810_s_at) / Fold change /veh ISYNA1 (11749810_s_at) / RFU ACY1 (11761880_at) / Fold change /veh ACY1 (11761880_at) / RFU 11764098_at / Fold change /veh 11764098_at / RFU SAMD14 (11745864_x_at) / Fold change /veh SAMD14 (11745864_x_at) / RFU NPB (11741838_a_at) / Fold change /veh NPB (11741838_a_at) / RFU TMPRSS6 (11731388_a_at) / Fold change /veh TMPRSS6 (11731388_a_at) / RFU KRTAP10-2 (11738614_at) / Fold change /veh KRTAP10-2 (11738614_at) / RFU ARHGAP8 /// PRR5-ARHGAP8 (11727945_x_at) / Fold change /veh ARHGAP8 /// PRR5-ARHGAP8 (11727945_x_at) / RFU KRTAP5-7 /// NADSYN1 (11734609_at) / Fold change /veh KRTAP5-7 /// NADSYN1 (11734609_at) / RFU RASL12 (11751679_a_at) / Fold change /veh RASL12 (11751679_a_at) / RFU CDKN2B (11736163_a_at) / Fold change /veh CDKN2B (11736163_a_at) / RFU PRF1 (11729649_at) / Fold change /veh PRF1 (11729649_at) / RFU, ZNF638 /// ZNF638-IT1 / Fold change vs veh, ZNF638 /// ZNF638-IT1 / RFU, PANK3 / Fold change vs veh, PANK3 / RFU, SH3YL1 / Fold change vs veh, SH3YL1 / RFU, ZEB2 / Fold change vs veh, ZEB2 / RFU, NRIP1 / Fold change vs veh, NRIP1 / RFU, PTTG1IP / Fold change vs veh, PTTG1IP / RFU, CAPN2 / Fold change vs veh, CAPN2 / RFU, MED14 / Fold change vs veh, MED14 / RFU, SNORA58 / Fold change vs veh, SNORA58 / RFU, C1orf63 / Fold change vs veh, C1orf63 / RFU, LRRFIP1 / Fold change vs veh, LRRFIP1 / RFU, NDUFAF7 / Fold change vs veh, NDUFAF7 / RFU, SLC12A2 / Fold change vs veh, SLC12A2 / RFU, IBTK / Fold change vs veh, IBTK / RFU, ESF1 / Fold change vs veh, ESF1 / Fold change vs veh, TMEM50B / RFU, TAOK1 / Fold change vs veh, TAOK1 / RFU, ACBD3 / Fold change vs veh, ACBD3 / RFU, TMA16 / Fold change vs veh, TMA16 / RFU, RWDD3 / Fold change vs veh, RWDD3 / RFU, BCAT1 / Fold change vs veh, BCAT1 / RFU, EDEM3 / Fold change vs veh, EDEM3 / RFU, TMEM33 / Fold change vs veh, TMEM33 / RFU, WDR75 / Fold change vs veh, WDR75 / RFU, AHCTF1 / Fold change vs veh, AHCTF1 / RFU, TFRC / Fold change vs veh, TFRC / RFU, ZDHHC17 / Fold change vs veh, ZDHHC17 / RFU, NOM1 / Fold change vs veh, NOM1 / RFU, ARL8B / Fold change vs veh, ARL8B / RFU, ZBTB11 / Fold change vs veh, ZBTB11 / RFU, TAMM41 / Fold change vs veh, TAMM41 / RFU, KIAA1704 /// LOC100996395 / Fold change vs veh, KIAA1704 /// LOC100996395 / RFU, ING1 / Fold change vs veh, ING1 / RFU, TRMT61B / Fold change vs veh, TRMT61B / RFU, FUBP3 / Fold change vs veh, FUBP3 / RFU, TP53 / Fold change vs veh, TP53 / RFU, TNKS2 / Fold change vs veh, TNKS2 / RFU, ZFP14 / Fold change vs veh, ZFP14 / RFU, ACTR2 / Fold change vs veh, ACTR2 / RFU, PPP3R1 / Fold change vs veh, PPP3R1 / RFU, PIK3R1 / Fold change vs veh, PIK3R1 / RFU, HNRNPA1 / Fold change vs veh, HNRNPA1 / RFU, RNF170 / Fold change vs veh, RNF170 / RFU, ZNF28 / Fold change vs veh, ZNF28 / RFU, RNGTT / Fold change vs veh, RNGTT / RFU, OGT / Fold change vs veh, OGT / RFU, BRD1 / Fold change vs veh, BRD1 / RFU, MARS / Fold change vs veh, MARS / RFU, ZNF655 / Fold change vs veh, ZNF655 / RFU, FAHD1 / Fold change vs veh, FAHD1 / RFU, BDP1 / Fold change vs veh, BDP1 / RFU, LRRCC1 / Fold change vs veh, LRRCC1 / RFU, ARID1A / Fold change vs veh, ARID1A / RFU, ZNF146 / Fold change vs veh, ZNF146 / RFU, ZNF330 / Fold change vs veh, ZNF330 / RFU, GPN3 / Fold change vs veh, GPN3 / RFU, C9orf123 / Fold change vs veh, C9orf123 / RFU, N4BP2L2 / Fold change vs veh, N4BP2L2 / RFU, ARFIP1 / Fold change vs veh, ARFIP1 / RFU, FAM179B / Fold change vs veh, FAM179B / RFU, BCL10 / Fold change vs veh, BCL10 / RFU, UHRF1BP1L / Fold change vs veh, UHRF1BP1L / RFU, BET1 / Fold change vs veh, BET1 / RFU, CNOT2 / Fold change vs veh, CNOT2 / RFU, ZNF268 / Fold change vs veh, ZNF268 / Fold change vs veh, ZNF507 / RFU, DGCR2 / Fold change vs veh, DGCR2 / RFU, WDSUB1 / Fold change vs veh, WDSUB1 / Fold change vs veh, HSP90B1 /// MIR3652 / RFU, ADSS / Fold change vs veh, ADSS / RFU, GK / Fold change vs veh, GK / RFU, ZNF148 / Fold change vs veh, ZNF148 / RFU, TAF9 / Fold change vs veh, TAF9 / RFU, SLC1A5 / Fold change vs veh, SLC1A5 / RFU, SLMO2 / Fold change vs veh, SLMO2 / RFU, ABCC4 / Fold change vs veh, ABCC4 / RFU, LOC101060439 /// RAP1B / Fold change vs veh, LOC101060439 /// RAP1B / RFU, RFX7 / Fold change vs veh, RFX7 / RFU, GTPBP10 / Fold change vs veh, GTPBP10 / RFU, CNEP1R1 / Fold change vs veh, CNEP1R1 / RFU, BIVM-ERCC5 /// ERCC5 / Fold change vs veh, BIVM-ERCC5 /// ERCC5 / RFU, ILF3 / Fold change vs veh, ILF3 / RFU 11762660_at / Fold change /veh 11762660_at / RFU VCAN (11757783_s_at) / Fold change /veh VCAN (11757783_s_at) / RFU DDX43 (11728927_at) / Fold change /veh DDX43 (11728927_at) / RFU KRT8 (11758188_x_at) / Fold change /veh KRT8 (11758188_x_at) / RFU NKD1 (11759106_at) / Fold change /veh NKD1 (11759106_at) / RFU SRD5A1 (11742802_a_at) / Fold change /veh SRD5A1 (11742802_a_at) / RFU TPSAB1 /// TPSB2 (11721975_s_at) / Fold change /veh TPSAB1 /// TPSB2 (11721975_s_at) / RFU GSTM3 (11746129_a_at) / Fold change /veh GSTM3 (11746129_a_at) / RFU IL23R (11737362_x_at) / Fold change /veh IL23R (11737362_x_at) / RFU TMEM51 (11727254_a_at) / Fold change /veh TMEM51 (11727254_a_at) / RFU PIWIL2 (11732686_x_at) / Fold change /veh PIWIL2 (11732686_x_at) / RFU ORM1 (11744905_x_at) / Fold change /veh ORM1 (11744905_x_at) / RFU CCDC152 (11743942_at) / Fold change /veh CCDC152 (11743942_at) / RFU ECM1 (11717891_a_at) / Fold change /veh ECM1 (11717891_a_at) / RFU IL23R (11748794_a_at) / Fold change /veh IL23R (11748794_a_at) / RFU TNFAIP8L3 (11732012_x_at) / Fold change /veh TNFAIP8L3 (11732012_x_at) / RFU MBOAT4 (11741988_at) / Fold change /veh MBOAT4 (11741988_at) / RFU 11764193_at / Fold change /veh 11764193_at / RFU TMEM53 (11763286_at) / Fold change /veh TMEM53 (11763286_at) / RFU MAGEB2 (11727129_at) / Fold change /veh MAGEB2 (11727129_at) / RFU TMEM200A (11744735_a_at) / Fold change /veh TMEM200A (11744735_a_at) / RFU CCDC152 (11751479_a_at) / Fold change /veh CCDC152 (11751479_a_at) / RFU FAM211A (11726209_a_at) / Fold change /veh FAM211A (11726209_a_at) / RFU RGS16 (11746705_a_at) / Fold change /veh RGS16 (11746705_a_at) / RFU VCAN (11755009_s_at) / Fold change /veh VCAN (11755009_s_at) / RFU RHOB (11743442_s_at) / Fold change /veh RHOB (11743442_s_at) / RFU RGS16 (11720943_a_at) / Fold change /veh RGS16 (11720943_a_at) / RFU RGS16 (11720944_at) / Fold change /veh RGS16 (11720944_at) / RFU, VPS4B / Fold change vs veh, VPS4B / RFU, CREB1 / Fold change vs veh, CREB1 / RFU, DNAJC13 / Fold change vs veh, DNAJC13 / RFU, GNAQ / Fold change vs veh, GNAQ / RFU, CDK5R1 / Fold change vs veh, CDK5R1 / RFU, ZRANB3 / Fold change vs veh, ZRANB3 / RFU, CUL4A / Fold change vs veh, CUL4A / RFU, CCNY / Fold change vs veh, CCNY / RFU, UFL1 / Fold change vs veh, UFL1 / RFU, COG3 / Fold change vs veh, COG3 / RFU, DIAPH2 / Fold change vs veh, DIAPH2 / RFU, SKA2 / Fold change vs veh, SKA2 / RFU, AFF3 / Fold change vs veh, AFF3 / RFU, LMF1 / Fold change vs veh, LMF1 / RFU, IPO11 / Fold change vs veh, IPO11 / RFU, DFFB / Fold change vs veh, DFFB / RFU, FOXP1 / Fold change vs veh, FOXP1 / RFU, CARD8 / Fold change vs veh, CARD8 / RFU, STRN3 / Fold change vs veh, STRN3 / RFU, ADK / Fold change vs veh, ADK / RFU, RASSF2 / Fold change vs veh, RASSF2 / RFU, WIPF1 / Fold change vs veh, WIPF1 / RFU, LARP1B / Fold change vs veh, LARP1B / RFU, RASA1 / Fold change vs veh, RASA1 / RFU, RB1 / Fold change vs veh, RB1 / RFU, PPFIA1 / Fold change vs veh, PPFIA1 / RFU, MAT2A / Fold change vs veh, MAT2A / RFU, CCT5 / Fold change vs veh, CCT5 / RFU, WDR92 / Fold change vs veh, WDR92 / RFU, CUX1 / Fold change vs veh, CUX1 / RFU, TTC7A / Fold change vs veh, TTC7A / RFU, TMEM135 / Fold change vs veh, TMEM135 / RFU, DEPTOR / Fold change vs veh, DEPTOR / RFU, CPM / Fold change vs veh, CPM / RFU, DNAJB6 / Fold change vs veh, DNAJB6 / RFU, CACNA2D3 / Fold change vs veh, CACNA2D3 / RFU, DTX4 / Fold change vs veh, DTX4 / RFU, TFCP2 / Fold change vs veh, TFCP2 / RFU, GMCL1 /// GMCL1P1 / Fold change vs veh, GMCL1 /// GMCL1P1 / RFU, AEBP2 / Fold change vs veh, AEBP2 / RFU, SNHG1 /// SNORD22 /// SNORD25 /// SNORD26 /// SNORD27 /// SNORD28 /// SNORD29 /// SNORD31 / Fold change vs veh, SNHG1 /// SNORD22 /// SNORD25 /// SNORD26 /// SNORD27 /// SNORD28 /// SNORD29 /// SNORD31 / Fold change (Aza/veh), C12orf56 (ProbeSet 11735607_a_at) / Fold change (ACY-1035/veh), C12orf56 (ProbeSet 11735607_a_at) / Fold change (Aza/veh), FGFR1OP (ProbeSet 11751329_s_at) / Fold change (ACY-1035/veh), FGFR1OP (ProbeSet 11751329_s_at) / Fold change (Aza/veh), VPS36 (ProbeSet 11739960_a_at) / Fold change (ACY-1035/veh), VPS36 (ProbeSet 11739960_a_at) / RFU SYPL1 (11715823_x_at) / Fold change /veh SYPL1 (11715823_x_at) / RFU IGFBP7 (11715501_s_at) / Fold change /veh IGFBP7 (11715501_s_at) / RFU REEP3 (11722064_at) / Fold change /veh REEP3 (11722064_at) / RFU IGLL1 (11728026_x_at) / Fold change /veh IGLL1 (11728026_x_at): dose or concentration left out as unconfirmed
Conditions: ProbeSet 11718701_a_at; LIST B

Q: Which “Fold change vs veh, ARFIP1” value does the source give for `Nc1ccc(-c2cccs2)cc1NC(=O)c1ccc2c(c1)cc(C1CC1)n2CCN1CCOCC1` [ACY-1035] here?
A: The value was 0.86.

Source: publication PMC5218480 (PLoS ONE, 2017)
